Consider three compounds from US20170360781A1, “PHARMACEUTICAL COMPOSITION COMPRISING BICYCLIC NITROGEN-CONTAINING AROMATIC HETEROCYCLIC AMIDE COMPOUND AS ACTIVE INGREDIENT” (Astellas Pharma Inc., priority 2014, published 2017).

The test system of experiment [1] is Human AML-derived KG-1 cells. Description: Anti-tumor test 2 on tumor-bearing mice transplanted with human AML-derived KG-1 cell. Type of experiment: in vivo. To be noted: KG-1, Balb/c nude mice, final measuring day. As to the method: (§1) 4 to 5 weeks old male Balb/c nude mice (CHARLES RIVER LABORATORIES JAPAN, INC.) were injected and implanted, under the skin on the back, with 3×10^6 KG-1 cells suspended to a mixed solution of PBS and Matrigel (registered trademark) in 1:1. Dividing into groups was performed when tumor volume reached 100 to 200 mm^3, and administering of the test compounds was started. The test was performed on each of the 5 mice in the solvent group and the compound administered group. By oral administration, 6% cyclodextrin aqueous solution for the solvent group, and 6% cyclodextrin aqueous solution in which the test compound was mixed by the dosage shown in Table 6 for the compound administered group were administered. The administration was performed once a day for 21 days, and the body weight and the tumor diameter were measured twice a week. For calculation of the tumor volume, the formula below was used.
(§2) [Tumor volume(mm^3)]=[major axis of tumor(mm)]×[minor axis of tumor(mm)]^2×0.5
(§3) The inhibition rate of tumor growth and the rate of tumor regression were calculated from the average value of the tumor volume according to the formula below.
(§4) Inhibition rate of tumor growth(%)=(1−average of tumor volume growth in each group/average of tumor volume growth in solvent group)×100
(§5) Rate of tumor regression(%)=(1−average tumor volume in each group on measuring day/average tumor volume in each group when dividing groups)×100

The subject of experiment [2] is Human AML-derived MV-4-11 cells. Description: Anti-tumor test 2 on tumor-bearing mice transplanted with human AML-derived MV-4-11 cell. Type of experiment: in vivo. To be noted: MV-4-11, NOD/SCID mice, 14 days after starting the administration. The procedure:
4 to 5 week old male NOD/SCID nude mice (CHARLES RIVER LABORATORIES JAPAN, INC.) were injected and implanted, under the skin on the back, with 5×10^6 MV-4-11 cells suspended to a mixed solution of PBS and Matrigel (registered trademark) in 1:1. Administering of the test compounds was started when tumor volume reached 100 to 250 mm^3. The test was performed on each of the 5 mice in the solvent group and the compound administered group. By oral administration, 6% cyclodextrin aqueous solution for the solvent group, and 6% cyclodextrin aqueous solution in which the test compound was mixed by the dosage shown in Table 8 for the compound administered group were administered. The administration was performed once a day by oral administration, and the body weight and the tumor diameter were measured twice a week. For calculation of the tumor volume, the formula below was used.
as §2, §3, §4, §5
The anti-tumor effect of Test Compounds A1, B1, C1, and D1 on the final measuring day (14 days after starting the administration) is shown in Table 8.

For experiment [3], the system named is SU-DHL-4 cells derived from DLBCL. Description: Anti-tumor test 2 on mice tumor-bearing DLBCL-derived SU-DHL-4 cells. The format is in vivo. The conditions noted are these: SU-DHL-4, Balb/c nude mice, final measuring day. The procedure:
as §1, with “5 week” for “5 weeks”, “3×10^6 DB” for “3×10^6 KG-1”, “cells or SU-DHL-4 cells both derived from DLBCL” for “cells”, “to 250” for “to 200”, “Table 10” for “Table 6”, “21 days by oral administration,” for “21 days,”
(§6) [Tumor volume(mm^3)]=[major axis of tumor(mm)]×[minor axis of tumor (mm)]^2×0.5
as §3, §4, §5

Experiment [4] concerns DB cells derived from DLBCL. The experiment is described as follows: Anti-tumor test 2 on mice tumor-bearing DLBCL-derived DB cells. The format is in vivo. To be noted: Balb/c nude mice, final measuring day. The procedure: as §1, with “5 week” for “5 weeks”, “3×10^6 DB” for “3×10^6 KG-1”, “cells or SU-DHL-4 cells both derived from DLBCL” for “cells”, “to 250” for “to 200”, “Table 10” for “Table 6”, “21 days by oral administration,” for “21 days,”
as §6, §3, §4, §5

Experiment [5] has as its system PIK3CA mutation-positive and BRAF mutation-positive RKO cells derived from human colorectal cancer. Description: Anti-tumor test 2 on mice tumor-bearing human colorectal cancer-derived RKO cells. The conditions noted are these: Balb/c nude mice, final measuring day. Type of experiment: in vivo. The procedure: (§7) 4 to 5 week old male Balb/c nude mice (CHARLES RIVER LABORATORIES JAPAN, INC.) were injected and implanted, under the skin on the back, with 3×10^6 PIK3CA mutation-positive and BRAF mutation-positive RKO cells, or 3×10^6 PIK3CA mutation-positive Colo201 cells, both derived from human colorectal cancer suspended to a mixed solution of PBS and Matrigel (registered trademark) in 1:1. Dividing into groups was performed when the tumor volume reached 100 to 250 mm^3, and administering of the test compounds was started. The test was performed on each of the 5 mice in the solvent group and the compound administered group. By oral administration, 6% cyclodextrin aqueous solution for the solvent group, and 6% cyclodextrin aqueous solution in which the test compound was mixed by the dosage shown in Table 4 for the compound administered group were administered. The administration was performed once a day for 11 days (RKO) or 21 days (Colo201), and the body weight and the tumor diameter were measured twice a week. For calculation of the tumor volume, the formula below was used.
as §2
(§8) The inhibition rate of tumor growth was calculated from the average value of the tumor volume according to the formula below.
(§9) Inhibition rate of tumor growth(%)=([…]average of tumor volume growth in each group/average of tumor volume growth in solvent group)×100

Experiment [6] concerns PIK3CA mutation-positive Colo201 cells derived from human colorectal cancer. The experiment is described as follows: Anti-tumor test 2 on mice tumor-bearing human colorectal cancer-derived Colo201 cells. The format is in vivo. The conditions noted are these: Colo201, Balb/c nude mice, final measuring day. As to the method:
as §7, §2, §8, §9

Experiment [7] addresses Human Mitochondrial Complex I (Homo sapiens, UniProt O75251+O75306+P03886). The experiment is described as follows: Evaluation on effect of inhibiting human mitochondrial Complex I (mitochondria from MDA-MB-453 tumor). Type of experiment: biochemical. The conditions noted are these: mitochondria extracted from MDA-MB-453 tumor; concentration in terms of freebase.
Description: A solution of 9 times the tumor weight for extraction of mitochondria (0.275 M Sucrose, 2.2 mM EDTA, 11 mM Tris/HCl, pH 7.5, Complete-EDTA-free (Roche Diagnostics)) was added thereto, and then the tumor was crushed. The centrifugation was performed at 600×g for 10 minutes at 4° C., the supernatant was obtained, and then the centrifugation was performed at 14,000×g for 10 minutes at 4° C., and therefore pellets were obtained. The pellets were suspended in 10 mM Tris/HCl pH 7.5 of 5 times the weight of the extracted tumor, and therefore a suspension of human mitochondria was obtained.
Next, 25 or 50 μl of the suspension of human mitochondria was added per 1 ml of a liquid for measuring Complex I activity (25 mM potassium phosphate, pH 7.6, 0.35% Bovine Serum Albumin (BSA), 60 μM 2,6-dichlorophenol-indophenol, 70 μM decylubiquinone, 1 μM antimycin). After the solution was collected and added to a 96 or 384 well plate, a test compound was added to an arbitrary range from the final concentration of 10,000 nM to the final concentration of 0.3 nM. […] Furthermore, NADH was added to each well to the final concentration of 0.2 or 0.5 mM, and the change in absorbance at a wavelength of 600 nm was measured by using the SpectraMax (Molecular Devices, LLC.) set to 37° C. in advance. […]
The mark [8] stands for this setting: 8 mg/kg oral once a day for 21 days.
The mark [9] stands for this setting: 1 mg/kg oral once a day for 21 days.
Where [10] appears, read: 1 mg/kg oral once a day for 11 days.

Turning to `COc1cnc(CN2CCC(c3ccc4[nH]c(C(=O)N5CCN(Cc6ccc(C(F)(F)F)cc6)CC5)nc4c3)CC2)cn1` [Compound B1, (5-{1-[(5-methoxypyrazin-2-yl)methyl]piperidin-4-yl}-1H-benzimidazol-2-yl){4-[4-(trifluoromethyl)benzyl]piperazin-1-yl}methanone], the “Rate of tumor regression” value worked out at 31% regression in experiment [1] (setting [8]) and 76% regression in experiment [2] (8 mg/kg oral once a day). The “Inhibition rate SU-DHL-4” value in experiment [3] (setting [8]) came out at 87%. In addition, in experiment [4] (setting [8]), the “Regression rate DB” value is recorded as 92% regression. In addition, the “Inhibition rate RKO” value in experiment [5] (8 mg/kg oral once a day for 11 days) is on record as 55%. Also, in experiment [6] (setting [8]), the “Inhibition rate Colo201” value is 52%.
In the case of `CCOc1cnc(CN2CCC(c3ccc4cc(C(=O)N5CCN(Cc6ccc(C#N)cc6)CC5)n(C)c4c3)CC2)cn1` [Compound C1, 4-({4-[(6-{1-[(5-ethoxypyrazin-2-yl)methyl]piperidin-4-yl}-1-methyl-1H-indol-2-yl)carbonyl]piperazin-1-yl}methyl)benzonitrile], the “Rate of tumor regression” value is on record as 29% regression in experiment [1] (setting [9]) and 77% regression in experiment [2] (1 mg/kg oral once a day). Also, the “Inhibition rate SU-DHL-4” value in experiment [3] (setting [9]) turned out to be 100%. Moreover, the “Regression rate DB” value in experiment [4] (setting [9]) is 69% regression. The “Inhibition rate RKO” value in experiment [5] (setting [10]) was 58%. In addition, in experiment [6] (setting [9]), the “Inhibition rate Colo201” value is given as 54%.
The IC50 is the concentration that inhibits the measured activity by half. Read a low IC50 as greater potency. Consider `COc1cnc(CN2CCC(c3ccc4c(c3)cc(C(=O)N3CCN(Cc5ccc(C#N)cc5)CC3)n4C)CC2)cn1` [Compound D1, 4-({4-[(5-{1-[(5-methoxypyrazin-2-yl)methyl]piperidin-4-yl}-1-methyl-1H-indol-2-yl)carbonyl]piperazin-1-yl}methyl)benzonitrile], for which the “Inhibition rate of tumor growth” value is recorded as 95% inhibition in experiment [1] (setting [9]) and 90% inhibition in experiment [2] (1 mg/kg oral once a day). Moreover, in experiment [3] (setting [9]), the “Inhibition rate SU-DHL-4” value turned out to be 40%. Further, the “Inhibition rate DB” value in experiment [4] (setting [9]) is 96% inhibition. The same compound registered a 50% inhibitory concentration (IC50) in experiment [7] of 120 nM. In experiment [5] (setting [10]), the “Inhibition rate RKO” value is on record as 13%. Besides, the “Inhibition rate Colo201” value in experiment [6] (setting [9]) worked out at 45%.
